Source: PubChem BioAssay (NCI)
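Here, GI50 denotes the concentration required for 50% inhibition of growth. TGI: concentration producing complete growth inhibition.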

What was measured:
Assay in all cases: growth of human tumour cells (NCI), 384-well format
NCI-H23 lung = test system: NCI-H23 lung
A498 renal = test system: A498 renal
MOLT-4 leukemia = test system: MOLT-4 leukemia
HT29 colon = test system: HT29 colon
RXF 393 renal = test system: RXF 393 renal
SK-OV-3 ovarian = test system: SK-OV-3 ovarian
HOP-92 NSCLC = test system: HOP-92 NSCLC
PC-3 prostate = test system: PC-3 prostate
CAKI-1 renal = test system: CAKI-1 renal
M14 melanoma = test system: M14 melanoma
NCI-H322M lung = test system: NCI-H322M lung
SR leukemia = test system: SR leukemia
HCT-116 colon = test system: HCT-116 colon
DU-145 prostate = test system: DU-145 prostate
OVCAR-4 ovarian = test system: OVCAR-4 ovarian
OVCAR-8 ovarian = test system: OVCAR-8 ovarian
NCI-H460 NSCLC = test system: NCI-H460 NSCLC
OVCAR-5 ovarian = test system: OVCAR-5 ovarian
NCI-H226 lung = test system: NCI-H226 lung
HOP-62 NSCLC = test system: HOP-62 NSCLC
SW-620 colon = test system: SW-620 colon
NCI-H522 lung = test system: NCI-H522 lung
OVCAR-3 ovarian = test system: OVCAR-3 ovarian
SF-295 CNS = test system: SF-295 CNS
786-0 renal = test system: 786-0 renal
EKVX NSCLC = test system: EKVX NSCLC
CCRF-CEM leukemia = test system: CCRF-CEM leukemia
TK-10 renal = test system: TK-10 renal
COLO 205 colon = test system: COLO 205 colon
UO-31 renal = test system: UO-31 renal
BT-549 breast = test system: BT-549 breast
SK-MEL-5 melanoma = test system: SK-MEL-5 melanoma
MDA-MB-231 breast = test system: MDA-MB-231 breast
HCT-15 colon = test system: HCT-15 colon
HS 578T breast = test system: HS 578T breast
MALME-3M melanoma = test system: MALME-3M melanoma
SF-268 CNS = test system: SF-268 CNS
LOX IMVI melanoma = test system: LOX IMVI melanoma
K-562 leukemia = test system: K-562 leukemia
KM12 colon = test system: KM12 colon
MDA-MB-468 breast = test system: MDA-MB-468 breast
SN12C renal = test system: SN12C renal
IGROV1 ovarian = test system: IGROV1 ovarian
NCI/ADR-RES ovarian = test system: NCI/ADR-RES ovarian
RPMI-8226 leukemia = test system: RPMI-8226 leukemia
HL-60(TB) leukemia = test system: HL-60(TB) leukemia
MCF7 breast = test system: MCF7 breast
ACHN renal = test system: ACHN renal
U251 glioblastoma = test system: U251 glioblastoma
SNB-19 CNS = test system: SNB-19 CNS
SNB-75 CNS = test system: SNB-75 CNS
MDA-MB-435 melanoma = test system: MDA-MB-435 melanoma
HCC-2998 colon = test system: HCC-2998 colon
A549 NSCLC = test system: A549 NSCLC
SF-539 CNS = test system: SF-539 CNS

Structure (SMILES): O=C(Nc1ccncc1)C(=O)c1cn(Cc2ccc(Cl)cc2)c2ccccc12
- GI50 (NCI-H23 lung): < 10 nM
- TGI (NCI-H23 lung): 67.4 nM
- GI50 (A498 renal): 30.5 nM
- TGI (A498 renal): > 100000 nM
- GI50 (MOLT-4 leukemia): < 10 nM
- TGI (MOLT-4 leukemia): < 10 nM
- GI50 (HT29 colon): < 10 nM
- TGI (HT29 colon): > 100000 nM
- GI50 (RXF 393 renal): < 10 nM
- TGI (RXF 393 renal): < 10 nM
- GI50 (SK-OV-3 ovarian): 25 nM
- TGI (SK-OV-3 ovarian): > 100000 nM
- GI50 (HOP-92 NSCLC): 10.4 nM
- TGI (HOP-92 NSCLC): 34300 nM
- GI50 (PC-3 prostate): < 10 nM
- TGI (PC-3 prostate): > 100000 nM
- GI50 (CAKI-1 renal): < 10 nM
- TGI (CAKI-1 renal): > 100000 nM
- GI50 (M14 melanoma): < 10 nM
- TGI (M14 melanoma): 36.8 nM
- GI50 (NCI-H322M lung): 44.8 nM
- TGI (NCI-H322M lung): > 100000 nM
- GI50 (SR leukemia): < 10 nM
- TGI (SR leukemia): < 10 nM
- GI50 (HCT-116 colon): < 10 nM
- TGI (HCT-116 colon): > 100000 nM
- GI50 (DU-145 prostate): 20.8 nM
- TGI (DU-145 prostate): > 100000 nM
- GI50 (OVCAR-4 ovarian): 23 nM
- TGI (OVCAR-4 ovarian): > 100000 nM
- GI50 (OVCAR-8 ovarian): < 10 nM
- TGI (OVCAR-8 ovarian): 14100 nM
- GI50 (NCI-H460 NSCLC): < 10 nM
- TGI (NCI-H460 NSCLC): 52.7 nM
- GI50 (OVCAR-5 ovarian): 894 nM
- TGI (OVCAR-5 ovarian): > 100000 nM
- GI50 (NCI-H226 lung): < 10 nM
- TGI (NCI-H226 lung): 787 nM
- GI50 (HOP-62 NSCLC): < 10 nM
- TGI (HOP-62 NSCLC): 24100 nM
- GI50 (SW-620 colon): < 10 nM
- TGI (SW-620 colon): > 100000 nM
- GI50 (NCI-H522 lung): < 10 nM
- TGI (NCI-H522 lung): < 10 nM
- GI50 (OVCAR-3 ovarian): < 10 nM
- TGI (OVCAR-3 ovarian): < 10 nM
- GI50 (SF-295 CNS): < 10 nM
- TGI (SF-295 CNS): < 10 nM
- GI50 ([…]-0 renal): < 10 nM
- TGI (786-0 renal): 2010 nM
- GI50 (EKVX NSCLC): < 10 nM
- TGI (EKVX NSCLC): > 100000 nM
- GI50 (CCRF-CEM leukemia): < 10 nM
- TGI (CCRF-CEM leukemia): 16.5 nM
- GI50 (TK-10 renal): < 10 nM
- TGI (TK-10 renal): 72200 nM
- GI50 (COLO 205 colon): 126 nM
- TGI (COLO 205 colon): 353 nM
- GI50 (UO-31 renal): < 10 nM
- TGI (UO-31 renal): > 100000 nM
- GI50 (BT-549 breast): < 10 nM
- TGI (BT-549 breast): > 100000 nM
- GI50 (SK-MEL-5 melanoma): < 10 nM
- TGI (SK-MEL-5 melanoma): 11.6 nM
- GI50 (MDA-MB-231 breast): 46.8 nM
- TGI (MDA-MB-231 breast): > 100000 nM
- GI50 (HCT-15 colon): < 10 nM
- TGI (HCT-15 colon): > 100000 nM
- GI50 (HS 578T breast): < 10 nM
- TGI (HS 578T breast): < 10 nM
- GI50 (MALME-3M melanoma): < 10 nM
- TGI (MALME-3M melanoma): 23400 nM
- GI50 (SF-268 CNS): < 10 nM
- TGI (SF-268 CNS): > 100000 nM
- GI50 (LOX IMVI melanoma): < 10 nM
- TGI (LOX IMVI melanoma): > 100000 nM
- GI50 (K-562 leukemia): < 10 nM
- TGI (K-562 leukemia): 11.9 nM
- GI50 (KM12 colon): < 10 nM
- TGI (KM12 colon): > 100000 nM
- GI50 (MDA-MB-468 breast): < 10 nM
- TGI (MDA-MB-468 breast): 20.8 nM
- GI50 (SN12C renal): 17.3 nM
- TGI (SN12C renal): > 100000 nM
- GI50 (IGROV1 ovarian): < 10 nM
- TGI (IGROV1 ovarian): > 100000 nM
- GI50 (NCI/ADR-RES ovarian): < 10 nM
- TGI (NCI/ADR-RES ovarian): < 10 nM
- GI50 (RPMI-8226 leukemia): < 10 nM
- TGI (RPMI-8226 leukemia): < 10 nM
- GI50 (HL-60(TB) leukemia): < 10 nM
- TGI (HL-60(TB) leukemia): < 10 nM
- GI50 (MCF7 breast): < 10 nM
- TGI (MCF7 breast): > 100000 nM
- GI50 (ACHN renal): < 10 nM
- TGI (ACHN renal): > 100000 nM
- GI50 (U251 glioblastoma): < 10 nM
- TGI (U251 glioblastoma): 1950 nM
- GI50 (SNB-19 CNS): 13.8 nM
- TGI (SNB-19 CNS): > 100000 nM
- GI50 (SNB-75 CNS): < 10 nM
- TGI (SNB-75 CNS): 3230 nM
- GI50 (MDA-MB-435 melanoma): < 10 nM
- TGI (MDA-MB-435 melanoma): < 10 nM
- GI50 (HCC-2998 colon): < 10 nM
- TGI (HCC-2998 colon): 377 nM
- GI50 (A549 NSCLC): 1090 nM
- TGI (A549 NSCLC): > 100000 nM
- GI50 (SF-539 CNS): < 10 nM
- TGI (SF-539 CNS): 24.7 nM
